Assay results as given in patent US8754233B2, “Pyrazolylbenzothiazole derivatives and their use as therapeutic agents” (Dermira (Canada), Inc., priority 2002, dated 2014).
pIC50: −log10 of the molar value.

Columns and labels:
[1] = test system: macrophages; test: Survival of macrophages; format: cell-based, mouse; conditions: Mus musculus, Macrophage; stimulated primary macrophages
Method: Peritoneal exudate macrophages were isolated by peritoneal lavage with ice-cold sterile physiological saline 24 hours after intraperitoneal injection of BALB/c mice with 0.3 ml of sterile zymosan A (1 mg/0.5 mL 0.9% saline). […] 1.5×10^5 cells/well were seeded in 96-well plates and followed by 3 hour incubation at 37° C. with 5% CO2 (macrophages were allowed to attach) cells were stimulated with LPS ([…]/mL) and IFN-γ (100 U/mL) in the absence or presence of the test compounds. All treatments were replicated six times. Cells were incubated for an additional 24 hours, and cell free culture supernatants from each well were collected for NO and cytokine determination. The remaining cells were stained with crystal violet to determine effect of the compound on cell survival.

[2] = test system: ConA 1° splenocytes; test: Survival of ConA 1° splenocytes (cytotoxicity by MTS staining); format: cell-based, mouse; conditions: Mus musculus, Splenocyte, ConA-stimulated splenocytes
Method: The working concentration of ConA was […]. A 20× working concentration of Concanavalin A was […] was prepared using RPMI-5. The test compounds, dimethylsulfoxide (DMSO) negative vehicle control and staurosporine positive control were diluted twenty times using RPMI-5. Ten μL each of DMSO and staurosporine were combined with 180 μl of medium containing splenocytes in the wells, and 10 μl of 50 μg/ml ConA was immediately added. Medium without ConA was added to the control wells. […] The plates were incubated at 37° C. in 5% CO2 in humidified conditions overnight (18-24 hours) for INFγ.
(MTS). The MTS solution was made fresh and under low light. The electron coupling reagent phenazine methosulfate (PMS) was added at the time of the assay. Twenty μL of MTS solution per 100 μl of tissue culture medium was added to each well. The plates were incubated 37° C. for 4 hours for unstimulated and 18-24 ConA stimulated splenocytes. The absorbance was read at 490 nm wavelength. A kit available to do this assay is “CellTiter 96® AQ Kit AQueous Kit (G5421)” by Promega.

[3] = test system: IL-12 on macrophages; test: Inhibition of IL-12 release from stimulated macrophages; format: cell-based, mouse; conditions: Mus musculus, Macrophage; LPS and IFN-γ stimulated primary macrophages, ELISA
Method: Peritoneal exudate macrophages were isolated by peritoneal lavage with ice-cold sterile physiological saline 24 hours after intraperitoneal injection of BALB/c mice with 0.5 mL of sterile Zymosan A (1 mg/0.5 mL 0.9% saline). […] Murine primary macrophage are activated following incubation with LPS in the presence of sub-optimal doses of IFN-γ. Upon activation, macrophages participate actively in the onset of inflammation by releasing bioactive molecules that amplify the initial inflammatory response. […] Briefly, IL-12 levels in the supernatants from stimulated macrophages were determined with PharMingen's OptEIA™ ELISA set developed using an anti-mouse IL-12 antibody pair and mouse rIL-12 standard (PharMingen). Maxisorp™ F16 multiwell strips (Nunc, Roskilde, Denmark) were coated with anti-mouse IL-12 capture Ab (at recommended concentration) in 0.1 M NaHCO3, pH 9.5, 100 μL/well, overnight at 4° C. […] Plates were washed 3× with PBST and duplicate samples (100 μL/well) or standards (100 μL/well) in diluent buffer were incubated for 2 h. Plates were washed five times with PBST and incubated with biotinylated anti-mouse IL-12 and avidin-horseradish peroxidase (HRP) conjugate (at concentrations recommended by the manufacturer) for 1 h. […] Peritoneal exudate macrophages were isolated by peritoneal lavage with ice-cold sterile physiological saline 24 hours after intraperitoneal injection of BALB/c mice with 0.3 ml of sterile zymosan A (1 mg/0.5 mL 0.9% saline). […] All treatments were replicated six times. Cells were incubated for an additional 24 hours, and cell free culture supernatants from each well were collected for NO and cytokine determination. The remaining cells were stained with crystal violet to determine effect of the compound on cell survival.

[4] = test system: HUVEC; conditions: HUVEC on Matrigel, VEGF 1 ng/mL, 5 hours
Method: Angiogenesis, the formation of new blood vessels from pre-existing endothelium, is a critical process involved in numerous physiological and pathological conditions. Disruption of this tightly regulated process has been implicated in both chronic inflammation and solid tumour growth. The Matrigel™ morphogenesis assay is an in vitro model used to mimic the process by which endothelial cells form capillaries in vivo. Human umbilical vein endothelial cells (HUVECs) were plated over matrigel, a complex mixture of solubilized basement membrane components, and cultured in serum poor medium with specific growth factors and in the presence of the test compound. […] After 5 hours of incubation in a 5% CO2-humidified atmosphere at 37° C., the three-dimensional organization of the cells (the capillary-like structures) was examined using an inverted photomicroscope. The cells were fixed with crystal violet (0.05% in 20% ethanol) and photographed using a digital camera. Qualitative analysis was accomplished by comparing the pattern, size and integrity of the vessels formed in the test wells with those of the VEGF control wells. Quantitative analysis was performed on the images collected using the Image-Pro Plus software program.

[5] = test system: PC3 Cells; test: Tumor cell migration assay; format: cell-based; conditions: Homo sapiens, PC-3, 25 μM compound
Method: The invasion test system (BD Bioscience's BioCoat™ FluoroBlok™ Invasion System including BD BioCoat™ Matrigel™ Invasion Chambers with the fluorescence blocking membrane FluoroBlok™ 24-Multiwell Insert System™) is removed from the package from −20° C. storage and allowed to warm to ambient temperature. PBS is added to the interior of the inserts and they are allowed to rehydrate for 2 hours at 37° C. The medium is then removed and 450 μL cell suspensions of tumor cells (grown to 50-70% confluence, trypsinized, and resuspended in medium without serum at 1×10^6/mL) is added to the top chamber. Test compounds are added to the top chamber at 10× the desired final concentration in 50 μL volumes. DMSO acts as the control. […]
Data is expressed as fluorescence units (FU) from the sum of middle 25 areas per 24-well or as percentage of invasion inhibition by following formula: % of invasion inhibition=100−FU of compound treated cell invasion/FU of DMSO treated cell invasion*100.
Tumor cell migration assay was conducted in the similar way as described in Example 16 except that the plates used were constructed with only a porous membrane dividing a top and bottom chamber without the additional thin Matrigel™ layer on top of the membrane (BD Fluoroblock™ plates). The percent inhibition of migration was determined in the same way as illustrated in Example 16.

[6] = test system: Nitric Oxide On Stimulated Macrophages; test: Inhibition of nitric oxide on stimulated macrophages; format: cell-based; conditions: Mus musculus, Macrophage, 25 μM compound
Method: Peritoneal exudate macrophages were isolated by peritoneal lavage with ice-cold sterile physiological saline 24 hours after intraperitoneal injection of BALB/c mice with 0.3 ml of sterile zymosan A (1 mg/0.5 mL 0.9% saline). […] All treatments were replicated six times. Cells were incubated for an additional 24 hours, and cell free culture supernatants from each well were collected for NO and cytokine determination. The remaining cells were stained with crystal violet to determine effect of the compound on cell survival. […] The absorbance at 550 nm was determined. All measurements were performed six times.

[7] = molecular target: ILK (Homo sapiens (Human), UniProt Q13418); test: Inhibition of ILK in vitro enzyme assay; conditions: read-out: IC50 avg. value; recombinant ILK, [γ-32P]-ATP, 15 minutes at ambient temperature
Sequence of ILK (Q13418 whole entry): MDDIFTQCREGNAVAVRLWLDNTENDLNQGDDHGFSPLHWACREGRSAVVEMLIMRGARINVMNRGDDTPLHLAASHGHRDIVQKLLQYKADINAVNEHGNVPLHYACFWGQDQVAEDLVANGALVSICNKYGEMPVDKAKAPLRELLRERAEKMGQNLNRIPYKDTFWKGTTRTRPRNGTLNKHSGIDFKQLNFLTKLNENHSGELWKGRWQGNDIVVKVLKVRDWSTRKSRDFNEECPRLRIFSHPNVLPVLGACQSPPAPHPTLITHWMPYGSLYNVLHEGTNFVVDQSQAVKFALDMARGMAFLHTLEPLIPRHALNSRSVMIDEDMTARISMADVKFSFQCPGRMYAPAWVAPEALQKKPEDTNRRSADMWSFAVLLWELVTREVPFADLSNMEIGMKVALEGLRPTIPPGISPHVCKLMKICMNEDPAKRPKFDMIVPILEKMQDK
Source text: The target ILK is a full-length recombinant protein expressed in Hi5 insect cells by baculovirus infection. Recombinant ILK protein was expressed using cultured insect cells and a baculovirus expression system. […] This ILK transfer construct was then co-transfected with BaculoGold™ DNA (Pharmingen) into Sf9 insect cells (Invitrogen) and a high titre preparation of GST-ILK recombinant baculovirus was produced by amplification in Sf9 cells. Liter scale expression of GST-ILK recombinant protein was done in 1000 mL spinner flasks (Bellco) by infection of Hi5 insect cells (Invitrogen) grown in Ex-Cell™ 400 serum free media (JRH Biosciences) at a multiplicity of infection of approximately 5. […]
From each assay mixture, 10 μL of assay mixture was spotted onto Millipore Multiscreen-PH™ opaque plates and washed twice for 10 minutes in 1% phosphoric acid. The plates were dried at 40° C. for 30 minutes, then substrate-phosphate complexes were quantitated by scintillation counting. […]
Inhibition of ILK by the test compounds is measured by scintillation counting of the incorporation of radioactive phosphate onto a specific substrate which is immobilized onto a filter paper at the end of the assay. […]
The “baseline activity” is the amount of radioactivity incorporated in the absence of a target inhibitor.

Nc1[nH]nc(-c2ccncc2)c1-c1nc2ccccc2s1 [4-Benzothiazol-2-yl-5-pyridin-4-yl-2H-pyrazol-3-ylamine]
pIC50 [1]: < 4.60
pIC50 [2]: < 4.60
pIC50 [3]: < 4.60

Nc1n[nH]c(N2CCCC2)c1-c1nc2ccccc2s1 [4-Benzothiazol-2-yl-5-pyrrolidin-1-yl-1H-pyrazol-3-ylamine]
% Inhibition of angiogenesis [4]: 50%

CSc1[nH]nc(N)c1-c1nc2ccccc2s1 [4-Benzothiazol-2-yl-5-methylsulfanyl-1H-pyrazol-3-ylamine]
% Inhibition of angiogenesis [4]: 84%

Cc1[nH]nc(N)c1-c1nc2ccccc2s1 [4-Benzothiazol-2-yl-5-methyl-1H-pyrazol-3-ylamine]
% Inhibition of angiogenesis [4]: 64%

Nc1n[nH]c(Nc2ccc3ncccc3c2)c1-c1nc2ccccc2s1 [4-Benzothiazol-2-yl-N^5-quinolin-6-yl-1H-pyrazole-3,5-diamine]
inhibition at 25 µM [5]: 81%
inhibition at 25 µM [6]: 66.1%

Oc1ccc(-c2n[nH]cc2-c2nc3ccccc3s2)c(O)c1 [4-(4-Benzothiazol-2-yl-1H-pyrazol-3-yl)-benzene-1,3-diol]
inhibition at 25 µM [5]: 44.8%
pIC50 [7]: 5.48

Nc1n[nH]c(N)c1-c1nc2ccccc2s1 [4-Benzothiazol-2-yl-1H-pyrazole-3,5-diamine]
% Inhibition of angiogenesis [4]: 32%
